Measured values reported in patent US20240269139A1, “COMPOUNDS FOR TARGETED PROTEIN DEGRADATION OF KINASES” (DANA-FARBER CANCER INSTITUTE, INC., priority 2020, published 2024).
Where “and” joins values, the source holds several entries; their conditions need not be identical. Equal entries are not always repeated. Where two headings read alike, the source gives them in different places.

Assays:
Format in all cases: cell-based
[1] = molecular target: protein kinases (human kinome) (Homo sapiens, UniProt Q14289); settings: for logFC: PTK2B (Q14289-1) protein abundance, degrader vs DMSO, down; for logFC PTK2B: accession Q14289-1, direction of change down
protein kinases (human kinome) (Homo sapiens, UniProt Q14289), sequence (Q14289 whole entry): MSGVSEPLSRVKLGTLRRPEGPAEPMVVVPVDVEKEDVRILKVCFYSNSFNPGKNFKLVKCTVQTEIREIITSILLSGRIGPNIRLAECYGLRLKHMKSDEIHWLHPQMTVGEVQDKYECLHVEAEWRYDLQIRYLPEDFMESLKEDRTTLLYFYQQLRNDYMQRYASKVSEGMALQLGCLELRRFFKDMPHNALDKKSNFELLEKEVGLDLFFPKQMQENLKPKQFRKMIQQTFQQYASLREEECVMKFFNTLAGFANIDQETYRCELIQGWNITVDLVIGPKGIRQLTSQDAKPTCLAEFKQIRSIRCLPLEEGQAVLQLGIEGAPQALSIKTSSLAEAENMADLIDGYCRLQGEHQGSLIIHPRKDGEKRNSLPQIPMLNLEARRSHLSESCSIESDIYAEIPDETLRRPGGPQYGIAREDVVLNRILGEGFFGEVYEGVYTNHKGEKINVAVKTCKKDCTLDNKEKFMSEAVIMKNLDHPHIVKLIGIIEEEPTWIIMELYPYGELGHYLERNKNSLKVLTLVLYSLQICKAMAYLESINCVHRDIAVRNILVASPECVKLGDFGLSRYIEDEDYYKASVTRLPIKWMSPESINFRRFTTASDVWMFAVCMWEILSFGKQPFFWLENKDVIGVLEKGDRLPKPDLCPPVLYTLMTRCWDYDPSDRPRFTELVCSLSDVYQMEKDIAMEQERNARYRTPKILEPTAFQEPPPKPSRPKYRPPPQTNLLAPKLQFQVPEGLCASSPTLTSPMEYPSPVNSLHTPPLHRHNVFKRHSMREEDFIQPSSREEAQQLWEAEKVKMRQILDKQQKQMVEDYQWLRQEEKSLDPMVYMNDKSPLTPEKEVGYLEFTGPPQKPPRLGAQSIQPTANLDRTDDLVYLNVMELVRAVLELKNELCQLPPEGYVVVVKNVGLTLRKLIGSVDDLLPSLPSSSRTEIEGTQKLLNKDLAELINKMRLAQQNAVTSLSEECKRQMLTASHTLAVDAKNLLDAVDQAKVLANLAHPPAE

[2] = molecular target: protein kinases (human kinome) (Homo sapiens, UniProt P51812); settings: RPS6KA3 (P51812)
protein kinases (human kinome) (Homo sapiens, UniProt P51812), sequence (P51812 whole entry): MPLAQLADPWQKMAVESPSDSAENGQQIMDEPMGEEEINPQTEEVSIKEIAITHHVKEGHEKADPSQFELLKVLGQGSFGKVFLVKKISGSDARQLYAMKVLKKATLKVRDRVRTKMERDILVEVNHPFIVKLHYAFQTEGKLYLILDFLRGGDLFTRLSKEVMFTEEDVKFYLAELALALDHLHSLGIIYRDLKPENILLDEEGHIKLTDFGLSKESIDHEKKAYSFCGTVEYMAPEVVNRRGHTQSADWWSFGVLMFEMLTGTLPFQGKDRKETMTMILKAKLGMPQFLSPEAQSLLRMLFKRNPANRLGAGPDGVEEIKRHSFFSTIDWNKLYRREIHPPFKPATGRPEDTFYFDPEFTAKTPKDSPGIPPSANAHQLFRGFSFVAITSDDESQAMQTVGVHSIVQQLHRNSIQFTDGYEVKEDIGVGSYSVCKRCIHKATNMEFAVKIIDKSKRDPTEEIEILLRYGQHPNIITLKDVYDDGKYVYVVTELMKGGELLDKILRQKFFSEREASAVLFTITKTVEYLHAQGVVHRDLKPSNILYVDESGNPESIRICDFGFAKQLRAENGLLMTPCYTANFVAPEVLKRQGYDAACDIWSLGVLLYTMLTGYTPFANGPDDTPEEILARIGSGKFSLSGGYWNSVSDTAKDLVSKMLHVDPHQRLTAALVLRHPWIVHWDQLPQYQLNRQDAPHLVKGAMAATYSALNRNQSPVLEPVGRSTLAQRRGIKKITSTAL

[3] = molecular target: protein kinases (human kinome) (Homo sapiens, UniProt Q8NI60)
protein kinases (human kinome) (Homo sapiens, UniProt Q8NI60), sequence (Q8NI60 163-647): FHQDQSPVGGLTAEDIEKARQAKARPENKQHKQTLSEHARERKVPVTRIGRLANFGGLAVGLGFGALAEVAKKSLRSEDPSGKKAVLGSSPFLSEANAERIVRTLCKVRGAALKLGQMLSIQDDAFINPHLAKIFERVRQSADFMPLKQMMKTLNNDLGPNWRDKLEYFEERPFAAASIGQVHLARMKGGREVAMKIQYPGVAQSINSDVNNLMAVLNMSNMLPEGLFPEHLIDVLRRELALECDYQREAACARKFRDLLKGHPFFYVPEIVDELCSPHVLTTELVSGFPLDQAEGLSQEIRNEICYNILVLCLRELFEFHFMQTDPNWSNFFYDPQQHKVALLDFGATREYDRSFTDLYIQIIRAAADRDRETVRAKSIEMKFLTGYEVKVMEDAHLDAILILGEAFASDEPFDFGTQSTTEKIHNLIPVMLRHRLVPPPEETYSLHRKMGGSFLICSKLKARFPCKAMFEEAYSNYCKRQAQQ

[4] = molecular target: protein kinases (human kinome) (Homo sapiens, UniProt Q00537); settings: for logFC of CDK17: Accession Q00537; for logFC CDK17 (Q00537): direction of change down
protein kinases (human kinome) (Homo sapiens, UniProt Q00537), sequence (Q00537 whole entry): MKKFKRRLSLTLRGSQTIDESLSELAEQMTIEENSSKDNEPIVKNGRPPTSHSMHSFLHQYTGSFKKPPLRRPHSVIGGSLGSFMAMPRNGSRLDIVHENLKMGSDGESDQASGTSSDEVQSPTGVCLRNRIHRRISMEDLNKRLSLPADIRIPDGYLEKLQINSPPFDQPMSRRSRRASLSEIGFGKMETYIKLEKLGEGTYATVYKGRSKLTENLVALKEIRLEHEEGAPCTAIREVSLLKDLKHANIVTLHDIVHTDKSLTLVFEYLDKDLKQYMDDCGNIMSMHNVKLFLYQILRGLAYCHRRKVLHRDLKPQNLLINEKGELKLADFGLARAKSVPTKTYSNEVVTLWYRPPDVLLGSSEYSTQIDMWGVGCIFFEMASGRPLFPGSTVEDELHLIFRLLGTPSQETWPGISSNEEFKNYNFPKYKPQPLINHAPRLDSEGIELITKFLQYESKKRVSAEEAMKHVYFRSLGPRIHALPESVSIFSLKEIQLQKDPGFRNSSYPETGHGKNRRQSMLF

[5] = molecular target: protein kinases (human kinome) (Homo sapiens, UniProt Q16539); settings: for logFC: MAPK14 (Q16539); for logFC MAPK14: MAPK14, accession Q16539, direction of change down
protein kinases (human kinome) (Homo sapiens, UniProt Q16539), sequence (Q16539 whole entry): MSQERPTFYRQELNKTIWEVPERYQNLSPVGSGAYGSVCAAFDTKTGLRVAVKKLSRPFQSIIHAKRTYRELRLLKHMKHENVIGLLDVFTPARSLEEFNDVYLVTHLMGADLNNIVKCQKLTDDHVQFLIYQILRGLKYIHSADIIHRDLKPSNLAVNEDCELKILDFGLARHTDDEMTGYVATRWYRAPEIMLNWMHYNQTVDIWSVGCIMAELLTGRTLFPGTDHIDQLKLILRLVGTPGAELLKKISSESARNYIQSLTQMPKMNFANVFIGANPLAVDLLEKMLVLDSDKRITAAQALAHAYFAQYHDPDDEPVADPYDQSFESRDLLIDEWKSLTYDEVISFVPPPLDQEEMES

[6] = molecular target: T1, protein kinases (human kinome) (Homo sapiens, UniProt Q12851); settings: for logFC MAP4K2 (Q12851): direction down; for logFC: MAP4K2 (Q12851)
T1 sequence (Q12851 1-820): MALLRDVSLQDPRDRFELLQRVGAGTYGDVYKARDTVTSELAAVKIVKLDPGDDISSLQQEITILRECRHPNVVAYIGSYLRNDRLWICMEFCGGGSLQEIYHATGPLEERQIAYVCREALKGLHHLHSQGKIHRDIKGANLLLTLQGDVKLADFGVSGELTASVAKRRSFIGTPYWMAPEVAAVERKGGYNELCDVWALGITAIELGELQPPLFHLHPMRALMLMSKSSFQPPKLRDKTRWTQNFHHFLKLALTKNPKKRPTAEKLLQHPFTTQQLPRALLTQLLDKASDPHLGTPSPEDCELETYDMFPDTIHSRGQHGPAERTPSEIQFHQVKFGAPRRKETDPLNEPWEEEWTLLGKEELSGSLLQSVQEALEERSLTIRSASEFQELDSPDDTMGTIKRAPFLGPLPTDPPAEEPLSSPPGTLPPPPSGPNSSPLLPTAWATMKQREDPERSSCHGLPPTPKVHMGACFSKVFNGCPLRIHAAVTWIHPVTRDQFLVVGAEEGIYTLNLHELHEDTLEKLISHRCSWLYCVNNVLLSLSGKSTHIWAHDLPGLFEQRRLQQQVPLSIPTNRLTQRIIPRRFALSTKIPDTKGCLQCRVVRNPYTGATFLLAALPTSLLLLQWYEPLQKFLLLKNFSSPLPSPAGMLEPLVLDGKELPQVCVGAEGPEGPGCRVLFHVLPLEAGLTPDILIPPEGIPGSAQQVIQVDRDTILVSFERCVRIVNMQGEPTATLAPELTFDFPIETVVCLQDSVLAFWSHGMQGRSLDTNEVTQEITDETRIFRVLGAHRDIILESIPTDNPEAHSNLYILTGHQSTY

[7] = molecular target: protein kinases (human kinome) (Homo sapiens, UniProt O43683); settings: for logFC: BUB1 (O43683); for logFC BUB1 (O43683): direction down
protein kinases (human kinome) (Homo sapiens, UniProt O43683), sequence (O43683 whole entry): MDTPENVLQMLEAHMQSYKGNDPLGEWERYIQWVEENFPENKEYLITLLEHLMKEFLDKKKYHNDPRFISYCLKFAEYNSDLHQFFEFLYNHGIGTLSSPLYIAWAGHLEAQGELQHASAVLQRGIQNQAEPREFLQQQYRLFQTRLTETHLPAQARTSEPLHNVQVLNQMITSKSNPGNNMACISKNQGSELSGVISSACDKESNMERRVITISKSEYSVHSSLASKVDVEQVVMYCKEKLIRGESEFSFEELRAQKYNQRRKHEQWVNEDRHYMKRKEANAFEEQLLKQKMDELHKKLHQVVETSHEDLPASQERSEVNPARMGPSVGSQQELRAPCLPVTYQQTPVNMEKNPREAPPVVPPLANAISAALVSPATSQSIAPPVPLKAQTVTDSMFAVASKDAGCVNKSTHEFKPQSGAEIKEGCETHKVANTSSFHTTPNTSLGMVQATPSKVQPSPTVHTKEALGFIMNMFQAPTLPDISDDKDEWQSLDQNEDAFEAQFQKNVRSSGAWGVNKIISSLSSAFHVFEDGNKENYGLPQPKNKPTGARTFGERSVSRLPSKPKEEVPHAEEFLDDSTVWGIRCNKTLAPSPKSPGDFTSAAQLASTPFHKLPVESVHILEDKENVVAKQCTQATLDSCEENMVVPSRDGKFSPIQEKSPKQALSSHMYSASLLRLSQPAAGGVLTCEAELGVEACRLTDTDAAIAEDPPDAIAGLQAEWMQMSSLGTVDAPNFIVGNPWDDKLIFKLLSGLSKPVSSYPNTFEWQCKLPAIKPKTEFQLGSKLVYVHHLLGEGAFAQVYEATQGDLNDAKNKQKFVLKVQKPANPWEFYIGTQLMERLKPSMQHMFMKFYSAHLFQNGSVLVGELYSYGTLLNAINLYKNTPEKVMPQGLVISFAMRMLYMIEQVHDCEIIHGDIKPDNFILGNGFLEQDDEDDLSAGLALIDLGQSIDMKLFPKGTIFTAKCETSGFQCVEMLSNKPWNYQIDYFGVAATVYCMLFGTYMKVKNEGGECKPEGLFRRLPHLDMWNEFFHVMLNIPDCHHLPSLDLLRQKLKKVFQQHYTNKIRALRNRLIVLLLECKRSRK

[8] = molecular target: T2, protein kinases (human kinome) (Homo sapiens, UniProt Q96L34); settings: for logFC MARK4: Accession Q96L34-1
T2 sequence (Q96L34 1-752): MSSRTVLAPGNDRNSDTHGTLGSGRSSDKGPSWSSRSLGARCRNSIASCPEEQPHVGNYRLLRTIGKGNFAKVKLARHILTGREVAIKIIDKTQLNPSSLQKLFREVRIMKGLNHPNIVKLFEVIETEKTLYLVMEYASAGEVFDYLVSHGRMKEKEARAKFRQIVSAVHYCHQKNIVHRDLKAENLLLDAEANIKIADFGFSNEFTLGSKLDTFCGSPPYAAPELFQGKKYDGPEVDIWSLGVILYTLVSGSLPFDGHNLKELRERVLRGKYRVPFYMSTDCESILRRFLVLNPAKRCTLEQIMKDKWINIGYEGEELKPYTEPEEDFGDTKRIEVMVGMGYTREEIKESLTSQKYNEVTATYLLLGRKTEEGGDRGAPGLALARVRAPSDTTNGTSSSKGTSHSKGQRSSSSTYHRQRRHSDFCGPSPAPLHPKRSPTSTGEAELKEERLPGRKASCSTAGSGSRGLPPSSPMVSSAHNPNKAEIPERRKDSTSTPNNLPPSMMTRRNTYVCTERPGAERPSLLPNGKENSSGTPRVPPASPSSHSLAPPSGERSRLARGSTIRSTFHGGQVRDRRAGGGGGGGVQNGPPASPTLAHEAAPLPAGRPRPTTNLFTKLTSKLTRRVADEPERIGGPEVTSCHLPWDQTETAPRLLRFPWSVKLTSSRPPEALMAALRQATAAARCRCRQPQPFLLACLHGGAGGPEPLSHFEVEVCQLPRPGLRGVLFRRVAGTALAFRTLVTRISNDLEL

## CNC(=O)c1ccccc1Nc1cc(Nc2ccc(N3CCN(CCOCCOCCNC(=O)CNc4cccc5c4C(=O)N(C4CCC(=O)NC4=O)C5=O)CC3)cc2OC)ncc1C(F)(F)F (centres unmarked) [MFH.5.103.1]
[1]
  logFC: −3.18
[1]; experiment wp076
  logFC PTK2B: −3.18
[2]; experiment wp076
  logFC: −1.165
[2]; experiment wp076, direction down
  logFC: −1.165

## Cc1ccc(C(=O)Nc2ccc(CN3CCN(CCCOCCOCCOCCNC(=O)COc4cccc5c4C(=O)N(C4CCC(=O)NC4=O)C5=O)CC3)c(C(F)(F)F)c2)cc1C#Cc1cnc2cccnn12 (centres unmarked) [SB1.G.187]
[3]; experiment wp056
  logFC COQ8A (Q8N160-1): −0.3885
  logFC COQ8A (Q8NI60-1): −0.3885
[4]; experiment wp172
  logFC of CDK17: −0.3562
  logFC CDK17 (Q00537): −0.3562
[5]; Accession Q16539, experiment wp172
  logFC of MAPK14: −0.5198
[5]; experiment wp103
  logFC: −0.83
  logFC MAPK14: −0.83
[5]; experiment wp107
  logFC: −0.924
  logFC MAPK14: −0.924
[5]; experiment wp172
  logFC: −0.5198
[6]; Experiment wp056
  logFC MAP4K2 (Q12851): −1.847
[6]; Experiment wp103
  logFC MAP4K2 (Q12851): −1.79
[6]; Experiment wp105
  logFC MAP4K2 (Q12851): −1.757
[6]; Experiment wp107
  logFC MAP4K2 (Q12851): −2.048
[6]; Experiment wp114
  logFC MAP4K2 (Q12851): −0.7516
[6]; experiment wp056
  logFC: −1.847
[6]; experiment wp103
  logFC: −1.79
[6]; experiment wp105
  logFC: −1.757
[6]; experiment wp107
  logFC: −2.048
[6]; experiment wp114
  logFC: −0.7516

## CC(C)S(=O)(=O)c1ccccc1Nc1nc(Nc2ccc(N3CCN(CCOCCNC(=O)CNc4cccc5c4C(=O)N(C4CCC(=O)NC4=O)C5=O)CC3)cc2)ncc1Cl (centres unmarked) [SK.3.91]
[3]; experiment wp160, 1 hr
  logFC COQ8A (Q8N160-1): −0.7959
  logFC COQ8A (Q8NI60-1): −0.7959
[4]; experiment wp016
  logFC of CDK17: −0.7341
  logFC CDK17 (Q00537): −0.7341
[4]; experiment wp016, 1 uM
  logFC of CDK17: −0.7503
  logFC CDK17 (Q00537): −0.7503
[4]; experiment wp103
  logFC of CDK17: −0.6015
  logFC CDK17 (Q00537): −0.6015
[4]; experiment wp105
  logFC of CDK17: −0.732
[4]; experiment wp107
  logFC of CDK17: −0.6145
  logFC CDK17 (Q00537): −0.6145
[4]; experiment wp133, 2 hr
  logFC of CDK17: −0.372
  logFC CDK17 (Q00537): −0.372
[4]; experiment wp133, 4 hr
  logFC of CDK17: −0.611
  logFC CDK17 (Q00537): −0.611
[4]; experiment wp160, 4 hr
  logFC of CDK17: −0.3952
  logFC CDK17 (Q00537): −0.3952
[4]; experiment wp172
  logFC of CDK17: −0.7492
  logFC CDK17 (Q00537): −0.7492
[4]; Experiment wp105
  logFC CDK17 (Q00537): −0.732
[1]; 1 uM
  logFC: −3.603
[1]; 1 hr
  logFC: −0.8056 and −1.043
[1]; 2 hr
  logFC: −2.027 and −2.105
[1]; experiment wp016, 1 uM
  logFC PTK2B: −3.603
[1]; experiment wp016
  logFC PTK2B: −3.824
[1]; experiment wp114
  logFC PTK2B: −1.885
[1]; experiment wp133, 1 hr
  logFC PTK2B: −0.8056
[1]; experiment wp133, 2 hr
  logFC PTK2B: −2.027
[1]; experiment wp133, 4 hr
  logFC PTK2B: −3.96
[1]; experiment wp160, 1 hr
  logFC PTK2B: −1.043
[1]; experiment wp160, 2 hr
  logFC PTK2B: −2.105
[1]; experiment wp160, 4 hr
  logFC PTK2B: −2.773
[7]; experiment wp133, 1 hr
  logFC: −0.4907
[7]; experiment wp133, 2 hr
  logFC: −0.4456
[7]; experiment wp133, 4 hr
  logFC: −0.5963
[7]; Experiment wp133, 1 hr
  logFC BUB1 (O43683): −0.4907
[7]; Experiment wp133, 2 hr
  logFC BUB1 (O43683): −0.4456
[7]; Experiment wp133, 4 hr
  logFC BUB1 (O43683): −0.5963
[8]; experiment wp103
  logFC MARK4: −1.326
  logFC MARK4 (Q96L34-1): −1.326
[8]; experiment wp107
  logFC MARK4: −1.292
  logFC MARK4 (Q96L34-1): −1.292
[8]; experiment wp114
  logFC MARK4: −1.3
  logFC MARK4 (Q96L34-1): −1.3
[8]; experiment wp133, 2 hr
  logFC MARK4: −0.6282
  logFC MARK4 (Q96L34-1): −0.6282
[8]; experiment wp133, 4 hr
  logFC MARK4: −1.537
  logFC MARK4 (Q96L34-1): −1.537
[8]; experiment wp160, 4 hr
  logFC MARK4: −1.529
  logFC MARK4 (Q96L34-1): −1.529

## CC(C)S(=O)(=O)c1ccccc1Nc1nc(Nc2ccc(N3CCN(CCOCCOCCNC(=O)CNc4cccc5c4C(=O)N(C4CCC(=O)NC4=O)C5=O)CC3)cc2)ncc1Cl (centres unmarked) [TL12.186]
[3]; experiment wp137
  logFC COQ8A (Q8N160-1): −0.4564
  logFC COQ8A (Q8NI60-1): −0.4564
[4]; experiment wp016
  logFC of CDK17: −0.84
  logFC CDK17 (Q00537): −0.84
[4]; experiment wp131
  logFC of CDK17: −0.6165
  logFC CDK17 (Q00537): −0.6165
[1]
  logFC: −3.722
[1]; experiment wp016
  logFC PTK2B: −3.722
[7]; experiment wp131
  logFC: −0.4983
[7]; experiment wp137
  logFC: −0.4422
[7]; Experiment wp131
  logFC BUB1 (O43683): −0.4983
[7]; Experiment wp137
  logFC BUB1 (O43683): −0.4422
[8]; experiment wp137
  logFC MARK4: −1.298
  logFC MARK4 (Q96L34-1): −1.298
[8]; experiment wp131
  logFC MARK4 (Q96L34-1): −1.829

## NC(=O)c1c(F)cccc1Nc1nc(Nc2ccc(S(=O)(=O)NCCOCCOCCOCCOCCNc3cccc4c3C(=O)N(C3CCC(=O)NC3=O)C4=O)cc2)ncc1Br (centres unmarked) [TMX.02.138]
[4]; experiment wp146
  logFC of CDK17: −1.361
  logFC CDK17 (Q00537): −1.361
[1]
  logFC: −1.24
[1]; experiment wp146
  logFC PTK2B: −1.24
[2]; experiment wp146
  logFC: −0.4023
[2]; experiment wp146, direction down
  logFC: −0.4023
